Reference: ChEMBL document CHEMBL1671671, “Tooth-binding micelles for dental caries prevention” (Antimicrob Agents Chemother, 2009)
Values after ≈ are worked out from the molar mass of the structure shown.

Key:
Streptococcus mutans [1] = experiment: (§1) Antibacterial activity against Streptococcus mutans UA159 assessed as log decrease in bacterial count per biofilm recovered from hydroxyapatite disc using medium dose compound containing hydroxyapatite bound tooth-binding micelles formed from biocompatible pluronic copolymers modified with alendronat measured after 48 hrs post dose; format: functional
[2] = Drug release from hydroxyapatite bound tooth-binding micelles formed from biocompatible pluronic copolymers modified with alendronat assessed as compound release into medium after 48 hrs; format: physicochemical
Streptococcus mutans [3] = experiment: Antibacterial activity against Streptococcus mutans UA159; format: functional
Streptococcus mutans [4] = experiment: as §1, with “high” for “medium”; format: functional
Streptococcus mutans [5] = experiment: as §1, with “low” for “medium”; format: functional

Molecule `CC(C)=CCC/C(C)=C/CC/C(C)=C/CO` [FARNESOL] has an FC (Streptococcus mutans [1]) of 4, an Activity [2] of 10% and an MIC (Streptococcus mutans [3]) of 125 µM (≈ 27.8 µg/mL). The FC (Streptococcus mutans [4]) was 4 and the FC (Streptococcus mutans [5]) was 4.
